29 compounds from ChEMBL document CHEMBL4382193, “Discovery of Potent Irreversible Pan-Fibroblast Growth Factor Receptor (FGFR) Inhibitors” (J Med Chem, 2018) can be followed below.

A word on the IC50: it is the concentration at which inhibition is half-maximal. By Cmax is commonly meant the maximum level reached in the sampled fluid or tissue. Broadly, the AUC is concentration integrated over time. For orientation: Tmax means the time from dosing to the highest level.

Series [1] concerns NCI-H1581. Briefly: cells. The settings on record: Homo sapiens, NCI-H1581, 72 h.
Description: Antiproliferative activity against FGFR1 amplified human NCI-H1581 cells after 72 hrs by CCK8 or MTT assay
The nature of series [2]: Cmax in Sprague-Dawley rat at 10 mg/kg, po administered via gavage by HPLC-MS/MS analysis. Format: ADME, organism-based. Further details: dose 10 mg/kg, route oral. The settings on record: in vivo.
The nature of series [3]: AUC in Sprague-Dawley rat at 10 mg/kg, po administered via gavage by HPLC-MS/MS analysis. Format: ADME, organism-based. The settings on record: in vivo.
Series [4] can be described thus: Tmax in Sprague-Dawley rat at 10 mg/kg, po administered via gavage by HPLC-MS/MS analysis. Format: ADME, organism-based. The settings on record: in vivo.
A short description of series [5]: Terminal half life in Sprague-Dawley rat at 10 mg/kg, po administered via gavage by HPLC-MS/MS analysis. Format: ADME, organism-based. The settings on record: in vivo, read-out: beta t1/2 (converted).
The subject of series [6] is OPM-2. Briefly: cells. The settings on record: Homo sapiens, OPM-2, 72 h.
Description: Antiproliferative activity against FGFR3 amplified human OPM2 cells after 72 hrs by CCK8 or MTT assay
The test system of series [7] is BaF3. The experiment in a line: cells. The settings on record: Mus musculus, BaF3, 72 h.
Description: Antiproliferative activity against mouse BAF3 cells expressing TEL-fused FGFR4 kinase after 72 hrs by CCK8 or MTT assay
In series [8] the test system is RT-112. Briefly: cells. The settings on record: Homo sapiens, RT-112, 72 h.
Description: Antiproliferative activity against FGFR3 amplified human RT112 cells after 72 hrs by CCK8 or MTT assay
The test system of series [9] is Huh-7. Briefly: cells. The settings on record: Homo sapiens, Huh-7, 72 h.
Description: Antiproliferative activity against FGF19/FGFR4 expressing human HuH7 cells after 72 hrs by CCK8 or MTT assay
Series [10] concerns BaF3. Briefly: cells. The settings on record: Mus musculus, BaF3, 72 h. This is another data set of the same source.
Description: Antiproliferative activity against mouse BAF3 cells expressing TEL-fused KDR kinase after 72 hrs by CCK8 or MTT assay
Series [11] addresses Fibroblast growth factor receptor 4 (Homo sapiens, UniProt P22455). Briefly: Inhibition of recombinant FGFR4 (unknown origin) using poly (Glu,Tyr) 4:1 as substrate after 60 mins by ELISA. In general terms: ELISA stands for enzyme-linked immunosorbent assay.
Series [12] has as its target Fibroblast growth factor receptor 1 (Homo sapiens, UniProt P11362).
Description: Inhibition of recombinant FGFR1 (unknown origin) using poly (Glu,Tyr) 4:1 as substrate after 60 mins by ELISA

Fibroblast growth factor receptor 1, sequence (P11362 whole entry): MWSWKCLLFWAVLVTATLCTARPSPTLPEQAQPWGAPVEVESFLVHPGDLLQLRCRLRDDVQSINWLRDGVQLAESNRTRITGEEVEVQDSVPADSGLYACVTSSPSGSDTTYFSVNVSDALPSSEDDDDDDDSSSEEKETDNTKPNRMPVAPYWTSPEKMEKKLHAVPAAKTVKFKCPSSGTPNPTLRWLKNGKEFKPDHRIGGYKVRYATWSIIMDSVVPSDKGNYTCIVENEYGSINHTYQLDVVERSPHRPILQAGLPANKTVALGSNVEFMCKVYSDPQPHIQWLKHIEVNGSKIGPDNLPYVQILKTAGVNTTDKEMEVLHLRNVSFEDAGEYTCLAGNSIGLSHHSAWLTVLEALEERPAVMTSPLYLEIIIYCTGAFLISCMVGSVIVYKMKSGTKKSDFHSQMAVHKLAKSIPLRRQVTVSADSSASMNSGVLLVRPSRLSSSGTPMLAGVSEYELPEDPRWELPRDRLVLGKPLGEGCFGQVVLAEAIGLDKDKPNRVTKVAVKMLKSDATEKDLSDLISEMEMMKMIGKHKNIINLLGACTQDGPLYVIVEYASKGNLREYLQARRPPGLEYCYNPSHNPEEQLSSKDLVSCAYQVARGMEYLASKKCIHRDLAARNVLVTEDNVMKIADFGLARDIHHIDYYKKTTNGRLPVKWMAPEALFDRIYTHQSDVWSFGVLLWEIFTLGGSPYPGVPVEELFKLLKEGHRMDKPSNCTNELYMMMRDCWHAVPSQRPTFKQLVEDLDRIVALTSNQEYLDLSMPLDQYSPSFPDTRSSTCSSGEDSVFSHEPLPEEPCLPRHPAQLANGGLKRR
Fibroblast growth factor receptor 4, sequence (P22455 whole entry): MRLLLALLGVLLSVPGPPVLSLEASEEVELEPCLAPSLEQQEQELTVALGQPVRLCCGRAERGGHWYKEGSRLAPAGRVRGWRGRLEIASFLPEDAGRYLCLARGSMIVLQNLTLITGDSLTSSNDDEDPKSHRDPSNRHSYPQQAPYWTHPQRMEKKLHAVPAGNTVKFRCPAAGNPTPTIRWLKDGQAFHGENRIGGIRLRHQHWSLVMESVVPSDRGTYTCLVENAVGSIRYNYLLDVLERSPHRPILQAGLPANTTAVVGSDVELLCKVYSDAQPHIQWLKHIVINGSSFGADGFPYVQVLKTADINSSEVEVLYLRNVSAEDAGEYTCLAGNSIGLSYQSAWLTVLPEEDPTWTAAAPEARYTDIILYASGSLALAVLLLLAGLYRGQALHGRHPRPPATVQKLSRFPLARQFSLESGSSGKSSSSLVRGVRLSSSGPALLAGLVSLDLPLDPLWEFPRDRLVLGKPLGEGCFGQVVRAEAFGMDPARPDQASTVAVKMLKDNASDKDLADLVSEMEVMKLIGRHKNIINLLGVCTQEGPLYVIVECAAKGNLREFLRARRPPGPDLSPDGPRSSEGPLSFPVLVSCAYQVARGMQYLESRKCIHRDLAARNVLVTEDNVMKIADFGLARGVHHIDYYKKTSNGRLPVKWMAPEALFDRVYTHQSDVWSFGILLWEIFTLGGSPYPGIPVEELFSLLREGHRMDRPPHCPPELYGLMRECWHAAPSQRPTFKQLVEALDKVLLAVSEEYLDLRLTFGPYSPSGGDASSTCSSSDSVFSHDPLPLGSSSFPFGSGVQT

In turn, `C=CC(=O)N1CCCC1Cn1cc(-c2cc3cc(C)cc(OC)c3s2)c2c(N)ncnc21` (stereo unspecified) came in with an IC50 in series [1] of under 0.3 nM.
On the same count and under the same terms, with `C=CC(=O)N1CC(n2cc(-c3cc4cc(OC)ccc4s3)c3c(N)ncnc32)C1` the figure was 38.1 nM; with `C=C(CN(C)C)C(=O)N1CCC(n2cc(-c3cc4cc(C)cc(OC)c4s3)c3c(N)ncnc32)C1` (stereo unspecified), under 0.3 nM.
In [2], `C=CC(=O)N1CC(n2cc(-c3cc4cc(C)cc(OC)c4s3)c3c(N)ncnc32)C1` returned a Cmax of 12 ng/mL. Also, the AUC in series [3] is 46.4 ng·h/mL. Also, the time of peak concentration (Tmax) in [4] was 1.67 h. Also, the IC50 in series [1] was under 0.3 nM. For the same compound, the half-life in series [5] was 2.11 h.
On to `C=CC(=O)N1CC(n2cc(-c3cc4ccccc4s3)c3c(N)ncnc32)C1`, for which the IC50 in series [1] was 170 nM.
On the same count and under the same terms, with `C=CC(=O)N1CCC(n2cc(-c3cc4cc(OC)cc(OC)c4s3)c3c(N)ncnc32)C1` (stereo unspecified) the figure was under 0.3 nM; with `C=CC(=O)N1CC(n2cc(-c3cc4c(OC)ccc(OC)c4s3)c3c(N)ncnc32)C1`, 15.9 nM.
For `COc1cc(CCc2cc(NC(=O)c3ccc(N4C[C@@H](C)N[C@@H](C)C4)cc3)n[nH]2)cc(OC)c1` [FEXAGRATINIB], the IC50 is 83.6 nM in [6]; 339 nM in [7]; 36.4 nM in series [8]; 284 nM in series [9]; 544 nM in [10].
Compound `C=CC(=O)N1CCC(n2cc(-c3cc4cc(C)cc(OC)c4s3)c3c(N)ncnc32)CC1` yielded an IC50 in series [1] of under 0.3 nM.
In series [1], `C=CC(=O)N1CCC(n2cc(-c3cc4cc(C)cc(OC)c4s3)c3c(N)nc(N)nc32)C1` (stereo unspecified) gave an IC50 of 25.7 nM.
As to `C=CC(=O)N1CC(n2cc(-c3cc4ccc(OC)cc4s3)c3c(N)ncnc32)C1`, the IC50 in [1] was 86.1 nM.
Consider `C=CC(=O)N1CCC(n2cc(-c3cc4cc(C)cc(OC)c4s3)c3c(N)ncnc32)C1` (stereo unspecified), for which the IC50 in [11] is 6.2 nM; in [12] it was under 0.3 nM; in [1], under 0.3 nM.
Compound `C=CC(=O)N1CCC(n2cc(-c3cc(OC)cc(OC)c3)c3c(N)ncnc32)C1` (stereo unspecified) showed an IC50 in series [1] of 90.2 nM.
Compound `CCC(=O)N1CCC(n2cc(-c3cc4cc(C)cc(OC)c4s3)c3c(N)ncnc32)C1` (stereo unspecified) yielded a concentration for half-maximal inhibition (IC50) in series [1] of 49.7 nM.
In the case of `C=CC(=O)N1CCC(n2cc(-c3cc4cc(C)cc(OC)c4s3)c3c(N)nc(C)nc32)C1` (stereo unspecified), in series [1], the IC50 was 254 nM.
`COc1cc(C)cc2cc(-c3cn(C4CCN(C(=O)/C=C/CN(C)C)C4)c4ncnc(N)c34)sc12` (stereo unspecified) yielded an IC50 in [1] of under 0.3 nM.
For the compound `C=CC(=O)N1CC(n2cc(-c3cc4cccc(OC)c4s3)c3c(N)ncnc32)C1`, in series [1], the IC50 is under 0.3 nM.
Take `C=CC(=O)N1CCCC(n2cc(-c3cc4cc(C)cc(OC)c4s3)c3c(N)ncnc32)C1` (stereo unspecified): half-maximal inhibition in [1] (IC50) was put at 227 nM.
Regarding `CCN1CCN(c2ccc(Nc3cc(N(C)C(=O)Nc4c(Cl)c(OC)cc(OC)c4Cl)ncn3)cc2)CC1` [INFIGRATINIB], the concentration for half-maximal inhibition (IC50) in series [7] is 133 nM; in series [8], under 0.5 nM; in series [9], 57.2 nM; in [10], 3340 nM.
In the case of `C=CS(=O)(=O)N1CC(n2cc(-c3cc4cc(C)cc(OC)c4s3)c3c(N)ncnc32)C1`, the IC50 in [12] is under 0.3 nM; in series [1], over 1000 nM.
In series [1], `C#CC(=O)N1CCC(n2cc(-c3cc4cc(C)cc(OC)c4s3)c3c(N)ncnc32)C1` (stereo unspecified) came in with an IC50 of over 1000 nM.
For `C=CC(=O)N1CCC(n2cc(-c3cc4cc(C)cc(OC)c4s3)c3c(NC)ncnc32)C1` (stereo unspecified), the IC50 in series [11] and in series [12] was over 100 nM in each case.
Turning to `C=CC(=O)N1CC(n2cc(-c3cc4cc(C)cc(OC)c4o3)c3c(N)ncnc32)C1`, the IC50 in series [11] was over 1000 nM.
`C=CC(=O)NCCn1cc(-c2cc3cc(C)cc(OC)c3s2)c2c(N)ncnc21` came in with an IC50 in series [1] of 255 nM.
In turn, `C=CC(=O)N1CC(n2cc(-c3cc4cc(C)cc(OC)c4s3)c3c(N)nc(Cl)nc32)C1` had an IC50 in series [1] of 207 nM.
In [1], `C=CC(=O)NC1CCC(n2cc(-c3cc4cc(C)cc(OC)c4s3)c3c(N)ncnc32)CC1` (stereo unspecified) showed an IC50 of 67.9 nM.
Take `C=CC(=O)N1CC[C@@H](n2cc(-c3cc4cc(C)cc(OC)c4s3)c3c(N)ncnc32)C1`: the IC50 in series [11] worked out at 82.7 nM; in [12], 0.6 nM; in [1], 21.7 nM.
In series [1], `C=CC(=O)N1CCC(n2cc(-c3cc4cccc(C)c4s3)c3c(N)ncnc32)C1` (stereo unspecified) gave an IC50 of under 0.3 nM.
Same read-out and setting: under `C=CC(=O)N1CCC(n2cc(-c3cc4cccc(OC)c4s3)c3c(N)ncnc32)C1` (stereo unspecified) stands under 0.3 nM.
